Experiments:
Format in all cases: functional, cell-based
HL-60 = assay: Cytotoxicity against human HL60 cells after 72 hrs by MTT assay; settings: HL-60, 72 h
ZR-75-30 = assay: Cytotoxicity against human ZR75-30 cells after 72 hrs by MTT assay; settings: ZR-75-30, 72 h
HCT-116 = assay: Cytotoxicity against human HCT116 cells after 72 hrs by MTT assay; settings: HCT-116, 72 h
A549 = assay: Cytotoxicity against human A549 cells after 72 hrs by MTT assay; settings: A549, 72 h

Measured: IC50

C[C@@H]1C[C@@H](O)[C@H]2C(C)(C)CCC[C@]2(C)[C@@]1(O)CCC1=CC(=O)OC1
> 5 mg/L: all assays above

CC1=C(CC[C@@H](C)C(=O)CCC2=CC(=O)OC2)C(C)(C)CCC1
> 5 mg/L: all assays above

CO[C@@H]1C[C@@]2(CC[C@@]3(O2)[C@H](C)CC[C@H]2C(C)(C)[C@@H](OC(C)=O)CC[C@@]23C)[C@H](OC)O1 (relative stereo)
> 5 mg/L: all assays above

CC(=O)O[C@@H]1CC(C)=C(CCC2=CC(=O)OC2)[C@@]2(C)CCCC(C)(C)[C@H]12 (relative stereo)
> 5 mg/L: all assays above

C[C@@H]1CC=C2C(C)(C)CCC[C@]2(C)[C@@]1(O)CCC1=CC(=O)OC1 (relative stereo)
> 5 mg/L: all assays above

C[C@@H]1C[C@@H](O)[C@H]2C(C)(C)CCC[C@]2(C)[C@@]12CC[C@]1(COC(=O)C1)O2 (relative stereo)
> 5 mg/L: all assays above

C[C@@H]1CC=C2C(C)(C)CCC[C@]2(C)[C@@]12CC[C@]1(COC(=O)C1)O2 (relative stereo)
> 5 mg/L: all assays above

CC(=O)O[C@@H]1C[C@@H](C)[C@]2(CC[C@]3(COC(=O)C3)O2)[C@@]2(C)CCCC(C)(C)[C@H]12 [PREVITEXILACTONE]
> 5 mg/L: all assays above

CC(=O)O[C@@H]1C[C@@H](C)[C@](O)(CCc2ccoc2)[C@@]2(C)CCCC(C)(C)[C@H]12 [ROTUNDIFURAN]
> 5 mg/L: all assays above

CC(=O)O[C@@H]1C[C@@H](C)[C@](O)(CCC2=CC(=O)OC2O)[C@@]2(C)CCCC(C)(C)[C@H]12 (stereo partly drawn) [VITEAGNUSIN I]
> 5 mg/L: all assays above

CC(=O)O[C@@H]1C[C@@H](C)[C@](O)(CCC2=CC(=O)OC2)[C@@]2(C)CCCC(C)(C)[C@H]12 [VITEXILACTONE]
> 5 mg/L: all assays above

CO[C@H]1C[C@@]2(CC[C@@]3(O2)[C@H](C)CC[C@H]2C(C)(C)[C@@H](OC(C)=O)CC[C@@]23C)[C@H](OC)O1 [VITEXTRIFOLIN B]
> 5 mg/L: all assays above
